US20250304623A1, “PEPTIDES FOR INTRACELLULAR DELIVERY” (UNIVERSIDADE DE SANTIAGO DE COMPOSTELA, priority 2022, published 2025)
*: point of attachment. NHNH2 = NN*

Experiments:
[1] = tested on: A549 cells expressing EGFP; assay: Cas9-RNP delivery against EGFP (gene editing, plate reader), A549; type: cell-based; details: A549 cells
Method: (§1) To generate an EGFP expressing HeLa cell line, HeLa cells were transfected with EGFP pDNA (pEGFP-C1, Clontech) and stable transfectants were selected with 400 μg/mL of G-418 (Millipore). Green clones were selected by epifluorescence microscopy and tested for EGFP expression stability through several passages. […] All other EGFP-expressing cell lines were obtained in a similar way from parent non-EGFP-expressing cell lines.
(§2) Cells expressing EGFP were seeded in a 96 well plate the day before the experiment at a concentration of 50,000 cell/mL (100 μL/w) in DMEM+10% FBS+1% Gln-Abt. For robotic library screening, the delivery of Cas9-RNP against EGFP (RNP designed to knock-out the gene encoding for the enhanced green fluorescent protein (EGFP)) was performed. For RNP assembly, 9.2 μL of crRNA and 9.2 μL of tracrRNA were mixed in 211.6 μL of Nuclease-Free Duplex Buffer (IDT), incubated for 5 min at 95° C. and slowly cooled at rt (see I. Lostalé-Seijo, et al. Peptide/Cas9 nanostructures for ribonucleoprotein cell membrane transport and gene edition, Chem. Sci., 2017). Cas9 protein was dissolved in DMEM at a final concentration of 4 μM and equal volumes of the RNA complex and Cas9 were mixed and incubated for 5 min at rt. 75 μL of the corresponding amphiphile concentrations were added to 5 μL of RNP at 2 μM. The mixture was shaken for 30 min at room temperature before the addition to the cells. The cell medium was aspirated, and cells were washed twice with PBS. Cells were covered with 30 μL of DMEM and 20 μL of the RNP/amphiphile complexes were added to the cells (final peptide concentrations=2.5, 5 and 10 μM; final Cas9-RNP concentration=50 nM) and incubated for 4 h. After the incubation, the medium was replaced by 100 μL of fresh DMEM supplemented with 10% FBS. The total EGFP fluorescence was quantified after 72 h in a plate reader (FIG. 2, Table 1 (right) and Table 6). All experiments were done in triplicate.
Tables 1-7: RLuc (pDNA) or EGFP (mRNA) expression levels were normalized to Lipofectamine reagents (value=1) and expressed as fold-times signal increase. In the case of siRNA, the siRNA treated cells fluorescence was compared with siMOCK control fluorescence, while Cas9-RNP mediated knockout was measured against the fluorescence of untreated cells. In both siRNA and Cas9-RNP, values are expressed as % fluorescence reduction. Amphiphile concentration was 5 μM in all cases. All experiments were performed in triplicate.
(§3) Tables 26-31 show the mean (triplicates) percentage of gene editing, accounted by GFP fluorescence intensity decrease (% of reduction), measured after the transfection of Cas9-RNP by different amphiphiles at different concentrations in a variety of cell lines. Background values, accounted by untreated control cells, were subtracted for processing.

[2] = tested on: HCT116 cells expressing EGFP; assay: Cas9-RNP delivery against EGFP (gene editing, plate reader), HCT116; type: cell-based
Method: as §1
as §2, with “triplicate. […]” for “triplicate.”
as §3

Substance: Ac-RRLK*RLK*RRLK*RL-NH2 [Peptide 13.3]
- percentage of gene editing, GFP fluorescence intensity decrease (% of reduction) ([1]; Dodecanal, 10 μM): 20%
- percentage of gene editing, GFP fluorescence intensity decrease (% of reduction) ([1]; Myristoleyl, 5 μM): 21%
- percentage of gene editing, GFP fluorescence intensity decrease (% of reduction) ([1]; Myristoleyl, 10 μM): 33%
- percentage of gene editing, GFP fluorescence intensity decrease (% of reduction) ([1]; Myristoleyl, 15 μM): 62%
- percentage of gene editing, GFP fluorescence intensity decrease (% of reduction) ([1]; Oleyl, 10 μM): 14%
- percentage of gene editing, GFP fluorescence intensity decrease (% of reduction) ([1]; Oleyl, 15 μM): 48%
- percentage of gene editing, GFP fluorescence intensity decrease (% of reduction) ([1]; Palmitoleyl, 10 μM): 33%
- percentage of gene editing, GFP fluorescence intensity decrease (% of reduction) ([1]; Palmitoleyl, 15 μM): 48%
- percentage of gene editing, GFP fluorescence intensity decrease (% of reduction) ([1]; Petroselinyl, 5 μM): 12%
- percentage of gene editing, GFP fluorescence intensity decrease (% of reduction) ([1]; Petroselinyl, 10 μM): 32%
- percentage of gene editing, GFP fluorescence intensity decrease (% of reduction) ([1]; Petroselinyl, 15 μM): 56%
- percentage of gene editing, GFP fluorescence intensity decrease (% of reduction) ([2]; Dodecanal, 5 μM): 25%
- percentage of gene editing, GFP fluorescence intensity decrease (% of reduction) ([2]; Dodecanal, 10 μM): 10%
- percentage of gene editing, GFP fluorescence intensity decrease (% of reduction) ([2]; Dodecanal, 15 μM): 20%
- percentage of gene editing, GFP fluorescence intensity decrease (% of reduction) ([2]; Myristoleyl, 15 μM): 10%
- percentage of gene editing, GFP fluorescence intensity decrease (% of reduction) ([2]; Oleyl, 5 μM): −1%
- percentage of gene editing, GFP fluorescence intensity decrease (% of reduction) ([2]; Palmitoleyl, 5 μM): −18%
- percentage of gene editing, GFP fluorescence intensity decrease (% of reduction) ([2]; Palmitoleyl, 15 μM): 18%

Substance: Ac-RRHK*RLK*RRLK*RL-NH2 (Ac-RRHK(NHNH2)RLK(NHNH2)RRLK(NHNH2)RL-NH2; not fully specified; printed as Ac-RRHK*RLK*RRLK*RL-NH2; also: K*4,K*7,K*11: native or modified lysine (ε-amide to a linker)) [13(Leu-His)]
- percentage of gene editing, GFP fluorescence intensity decrease (% of reduction) ([1]; Myristoleyl, 5 μM): 13%
- percentage of gene editing, GFP fluorescence intensity decrease (% of reduction) ([1]; Myristoleyl, 10 μM): 20%
- percentage of gene editing, GFP fluorescence intensity decrease (% of reduction) ([1]; Myristoleyl, 15 μM): 45%
- percentage of gene editing, GFP fluorescence intensity decrease (% of reduction) ([1]; Palmitoleyl, 15 μM): 21%
- percentage of gene editing, GFP fluorescence intensity decrease (% of reduction) ([1]; Petroselinyl, 5 μM): 13%
- percentage of gene editing, GFP fluorescence intensity decrease (% of reduction) ([1]; Petroselinyl, 10 μM): 16%
- percentage of gene editing, GFP fluorescence intensity decrease (% of reduction) ([1]; Petroselinyl, 15 μM): 42%
- percentage of gene editing, GFP fluorescence intensity decrease (% of reduction) ([2]; Dodecanal, 5 μM): −28%
- percentage of gene editing, GFP fluorescence intensity decrease (% of reduction) ([2]; Dodecanal, 10 μM): −5%
- percentage of gene editing, GFP fluorescence intensity decrease (% of reduction) ([2]; Myristoleyl, 5 μM): 22%
- percentage of gene editing, GFP fluorescence intensity decrease (% of reduction) ([2]; Myristoleyl, 10 μM): −105%
- percentage of gene editing, GFP fluorescence intensity decrease (% of reduction) ([2]; Oleyl, 5 μM): 7%
- percentage of gene editing, GFP fluorescence intensity decrease (% of reduction) ([2]; Palmitoleyl, 5 μM): 4%
- percentage of gene editing, GFP fluorescence intensity decrease (% of reduction) ([2]; Palmitoleyl, 15 μM): 0%
- percentage of gene editing, GFP fluorescence intensity decrease (% of reduction) ([2]; Petroselinyl, 5 μM): 18%

Substance: Ac-RRLK*RLLRRLK*RLK*RRL-NH2 (Ac-RRLK(NHNH2)RLLRRLK(NHNH2)RLK(NHNH2)RRL-NH2; not fully specified; printed as Ac-RRLK*RLLRRLK*RLK*RRL-NH2; also: K*4,K*11,K*14: native or modified lysine (ε-amide to a linker)) [Peptide 17.3]
- percentage of gene editing, GFP fluorescence intensity decrease (% of reduction) ([1]; Dodecanal, 10 μM): 75%
- percentage of gene editing, GFP fluorescence intensity decrease (% of reduction) ([1]; Dodecanal, 15 μM): 34%
- percentage of gene editing, GFP fluorescence intensity decrease (% of reduction) ([1]; Myristoleyl, 5 μM): 17%
- percentage of gene editing, GFP fluorescence intensity decrease (% of reduction) ([1]; Oleyl, 10 μM): 72%
- percentage of gene editing, GFP fluorescence intensity decrease (% of reduction) ([1]; Oleyl, 15 μM): 34%
- percentage of gene editing, GFP fluorescence intensity decrease (% of reduction) ([1]; Palmitoleyl, 5 μM): 17%
- percentage of gene editing, GFP fluorescence intensity decrease (% of reduction) ([1]; Palmitoleyl, 10 μM): 60%
- percentage of gene editing, GFP fluorescence intensity decrease (% of reduction) ([1]; Palmitoleyl, 15 μM): 72%
- percentage of gene editing, GFP fluorescence intensity decrease (% of reduction) ([1]; Petroselinyl, 5 μM): 23%
- percentage of gene editing, GFP fluorescence intensity decrease (% of reduction) ([1]; Petroselinyl, 15 μM): 66%
- percentage of gene editing, GFP fluorescence intensity decrease (% of reduction) ([2]; Dodecanal, 5 μM): −2%
- percentage of gene editing, GFP fluorescence intensity decrease (% of reduction) ([2]; Dodecanal, 15 μM): 22%
- percentage of gene editing, GFP fluorescence intensity decrease (% of reduction) ([2]; Myristoleyl, 15 μM): 26%
- percentage of gene editing, GFP fluorescence intensity decrease (% of reduction) ([2]; Petroselinyl, 5 μM): −4%

Substance: Ac-RK*LRK*K*L-NH2 (Ac-RK(NHNH2)LRK(NHNH2)K(NHNH2)L-NH2; not fully specified; printed as Ac-RK*LRK*K*L-NH2; also: K*2,K*5,K*6: native or modified lysine (ε-amide to a linker)) [Peptide 7.3]
- percentage of gene editing, GFP fluorescence intensity decrease (% of reduction) ([1]; Dodecanal, 10 μM): −2%
- percentage of gene editing, GFP fluorescence intensity decrease (% of reduction) ([1]; Dodecanal, 15 μM): 1%
- percentage of gene editing, GFP fluorescence intensity decrease (% of reduction) ([1]; Myristoleyl, 5 μM): 7%
- percentage of gene editing, GFP fluorescence intensity decrease (% of reduction) ([1]; Myristoleyl, 10 μM): 10%
- percentage of gene editing, GFP fluorescence intensity decrease (% of reduction) ([1]; Myristoleyl, 15 μM): 12%
- percentage of gene editing, GFP fluorescence intensity decrease (% of reduction) ([1]; Oleyl, 5 μM): −9%
- percentage of gene editing, GFP fluorescence intensity decrease (% of reduction) ([1]; Oleyl, 15 μM): −1%
- percentage of gene editing, GFP fluorescence intensity decrease (% of reduction) ([1]; Palmitoleyl, 5 μM): 27%
- percentage of gene editing, GFP fluorescence intensity decrease (% of reduction) ([1]; Palmitoleyl, 10 μM): 33%
- percentage of gene editing, GFP fluorescence intensity decrease (% of reduction) ([1]; Palmitoleyl, 15 μM): 13%
- percentage of gene editing, GFP fluorescence intensity decrease (% of reduction) ([1]; Petroselinyl, 5 μM): 23%
- percentage of gene editing, GFP fluorescence intensity decrease (% of reduction) ([1]; Petroselinyl, 10 μM): 22%
- percentage of gene editing, GFP fluorescence intensity decrease (% of reduction) ([1]; Petroselinyl, 15 μM): 7%
- percentage of gene editing, GFP fluorescence intensity decrease (% of reduction) ([2]; Dodecanal, 15 μM): −11%
- percentage of gene editing, GFP fluorescence intensity decrease (% of reduction) ([2]; Myristoleyl, 15 μM): 4%
- percentage of gene editing, GFP fluorescence intensity decrease (% of reduction) ([2]; Oleyl, 5 μM): −7%
- percentage of gene editing, GFP fluorescence intensity decrease (% of reduction) ([2]; Oleyl, 10 μM): 4%
- percentage of gene editing, GFP fluorescence intensity decrease (% of reduction) ([2]; Palmitoleyl, 5 μM): −12%
- percentage of gene editing, GFP fluorescence intensity decrease (% of reduction) ([2]; Palmitoleyl, 10 μM): 17%
- percentage of gene editing, GFP fluorescence intensity decrease (% of reduction) ([2]; Palmitoleyl, 15 μM): 35%
- percentage of gene editing, GFP fluorescence intensity decrease (% of reduction) ([2]; Petroselinyl, 5 μM): 39%
- percentage of gene editing, GFP fluorescence intensity decrease (% of reduction) ([2]; Petroselinyl, 10 μM): 34%

Substance: Ac-RRLK*RLLRRLK*RL-NH2 (Ac-RRLK(NHNH2)RLLRRLK(NHNH2)RL-NH2; not fully specified; printed as Ac-RRLK*RLLRRLK*RL-NH2; also: K*4,K*11: native or modified lysine (ε-amide to a linker)) [Peptide 13.2]
- percentage of gene editing, GFP fluorescence intensity decrease (% of reduction) ([1]; Oleyl, 5 μM): 10%
- percentage of gene editing, GFP fluorescence intensity decrease (% of reduction) ([1]; Oleyl, 10 μM): 12%
- percentage of gene editing, GFP fluorescence intensity decrease (% of reduction) ([1]; Oleyl, 15 μM): 4%
- percentage of gene editing, GFP fluorescence intensity decrease (% of reduction) ([2]; Oleyl, 5 μM): −6%

Substance: Ac-RK*LRRLLRK*-NH2 (Ac-RK(NHNH2)LRRLLRK(NHNH2)-NH2; not fully specified; printed as Ac-RK*LRRLLRK*-NH2; also: K*2,K*9: native or modified lysine (ε-amide to a linker)) [Peptide 9.2]
- percentage of gene editing, GFP fluorescence intensity decrease (% of reduction) ([1]; Dodecanal, 10 μM): −22%
- percentage of gene editing, GFP fluorescence intensity decrease (% of reduction) ([1]; Dodecanal, 15 μM): 4%
- percentage of gene editing, GFP fluorescence intensity decrease (% of reduction) ([1]; Myristoleyl, 5 μM): 9%
- percentage of gene editing, GFP fluorescence intensity decrease (% of reduction) ([1]; Myristoleyl, 10 μM): 7%
- percentage of gene editing, GFP fluorescence intensity decrease (% of reduction) ([1]; Myristoleyl, 15 μM): 14%
- percentage of gene editing, GFP fluorescence intensity decrease (% of reduction) ([2]; Dodecanal, 5 μM): −34%
- percentage of gene editing, GFP fluorescence intensity decrease (% of reduction) ([2]; Dodecanal, 10 μM): −15%
- percentage of gene editing, GFP fluorescence intensity decrease (% of reduction) ([2]; Dodecanal, 15 μM): −22%
